ChEMBL document CHEMBL5729675, “Sulfonamide compound or salt thereof” (2023)
pIC50: −log10 of the molar value.

Biological target: Ribonucleotide reductase (Homo sapiens, UniProt P23921+Q7LG56)
Assay: Human RNR Inhibition Effect: The inhibitory activity against the ribonucleotide reduction reaction (hereinafter referred to as RNR reaction) of the test compound was determined by measuring the formation of deoxycytidine diphosphate (hereinafter referred to as dCDP) from cytidine diphosphate (hereinafter referred to as CDP) by the following method.Human M1 subunit and human M2 subunit (mutant …

Sequence of Ribonucleotide reductase (P23921 whole entry, looked up): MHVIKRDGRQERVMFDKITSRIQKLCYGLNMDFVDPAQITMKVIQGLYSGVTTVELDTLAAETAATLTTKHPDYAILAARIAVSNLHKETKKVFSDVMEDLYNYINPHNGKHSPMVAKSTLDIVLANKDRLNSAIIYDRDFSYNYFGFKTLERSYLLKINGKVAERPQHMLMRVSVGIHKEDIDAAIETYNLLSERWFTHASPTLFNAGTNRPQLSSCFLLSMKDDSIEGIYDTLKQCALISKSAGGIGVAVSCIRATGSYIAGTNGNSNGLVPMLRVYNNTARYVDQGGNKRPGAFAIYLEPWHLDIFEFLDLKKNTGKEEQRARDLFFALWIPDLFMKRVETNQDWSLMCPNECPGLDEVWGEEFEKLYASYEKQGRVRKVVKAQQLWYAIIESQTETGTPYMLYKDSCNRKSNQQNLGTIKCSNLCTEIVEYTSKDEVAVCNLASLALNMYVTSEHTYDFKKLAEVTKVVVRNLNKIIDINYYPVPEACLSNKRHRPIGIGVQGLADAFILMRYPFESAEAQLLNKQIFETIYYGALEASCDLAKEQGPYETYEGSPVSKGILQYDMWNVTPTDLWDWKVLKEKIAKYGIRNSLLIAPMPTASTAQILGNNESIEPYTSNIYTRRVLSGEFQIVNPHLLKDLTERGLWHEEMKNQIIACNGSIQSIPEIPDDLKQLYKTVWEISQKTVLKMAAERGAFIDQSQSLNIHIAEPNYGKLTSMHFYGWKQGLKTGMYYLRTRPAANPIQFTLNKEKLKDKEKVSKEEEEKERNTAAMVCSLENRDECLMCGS
Sequence of Ribonucleotide reductase (Q7LG56 whole entry, looked up): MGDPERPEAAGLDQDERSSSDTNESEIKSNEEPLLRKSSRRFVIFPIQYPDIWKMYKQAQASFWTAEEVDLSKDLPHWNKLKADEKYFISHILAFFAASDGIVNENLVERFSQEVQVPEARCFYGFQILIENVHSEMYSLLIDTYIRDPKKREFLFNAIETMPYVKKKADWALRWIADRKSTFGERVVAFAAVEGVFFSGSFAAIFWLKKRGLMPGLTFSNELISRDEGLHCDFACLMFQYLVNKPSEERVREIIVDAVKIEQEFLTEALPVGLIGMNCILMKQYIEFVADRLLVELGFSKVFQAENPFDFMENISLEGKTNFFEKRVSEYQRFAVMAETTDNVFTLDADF

| Compound | pIC50 |
| --- | --- |
| Cc1ccc(F)c([C@@H](C)[C@H](NS(=O)(=O)c2ccc(Cl)cc2C(N)=O)c2n[nH]c(=O)o2)c1Cl | 6.30 |
| COc1cc(Cl)ccc1S(=O)(=O)N[C@H](c1n[nH]c(=O)o1)C(C)c1c(F)c(F)cc(C)c1Br (stereo not given in full) | 6.38 |
| COc1cc(Cl)ccc1S(=O)(=O)N[C@H](c1n[nH]c(=O)o1)[C@H](C)c1cccc2cccc(C)c12 | 6.62 |
| Cc1ccc(F)c([C@@H](C)[C@H](NS(=O)(=O)c2cc(C(=O)O)c(Cl)cc2C(N)=O)c2n[nH]c(=O)o2)c1C | 6.72 |
| Cc1cc(F)cc([C@@H](C)[C@H](NS(=O)(=O)c2ccc(Cl)cc2C(N)=O)c2n[nH]c(=O)o2)c1C | 6.35 |
| Cc1cccc([C@@H](C)[C@H](NS(=O)(=O)c2ccc(Br)cc2C(N)=O)c2n[nH]c(=O)o2)c1C | 6.42 |
| Cc1c(Cl)ccc(F)c1[C@@H](C)[C@H](NS(=O)(=O)c1ccc(Cl)cc1C(N)=O)c1n[nH]c(=O)o1 | 6.60 |
| C[C@H](c1cccc2ccccc12)[C@H](NS(=O)(=O)c1ccc(Cl)cc1Cl)c1n[nH]c(=O)o1 | 6.08 |
| Cc1ccc(F)c([C@@H](C)[C@H](NS(=O)(=O)c2ccc(Cl)cc2C#N)c2n[nH]c(=O)o2)c1C | 6.44 |
| COc1cc(Cl)ccc1S(=O)(=O)N[C@H](c1n[nH]c(=O)o1)[C@H](C)c1cccc(C)c1C(C)C | 6.08 |
| Cc1ccc(F)c([C@@H](C)[C@H](NS(=O)(=O)c2ccc(Br)cc2C#N)c2n[nH]c(=O)o2)c1C | 6.70 |
| Cc1ccc(F)c([C@@H](C)[C@H](NS(=O)(=O)c2ccc(Cl)cc2-c2ccno2)c2n[nH]c(=O)o2)c1C | 6.64 |
| Cc1ccc(F)c([C@@H](C)[C@H](NS(=O)(=O)c2ccccc2C#N)c2n[nH]c(=O)o2)c1C | 6.19 |
| Cc1c(Br)ccc(F)c1[C@@H](C)[C@H](NS(=O)(=O)c1ccc(C(F)(F)F)cc1C(N)=O)c1n[nH]c(=O)o1 | 6.70 |
| COc1cc(Cl)ccc1S(=O)(=O)N[C@H](c1n[nH]c(=O)o1)[C@H](C)c1c(F)ccc2ccccc12 | 6.70 |
| Cc1c(F)ccc(F)c1[C@@H](C)[C@H](NS(=O)(=O)c1ccc(Cl)cc1C(N)=O)c1n[nH]c(=O)o1 | 6.30 |
| C[C@H](c1cccc2c1CCCC2)[C@H](NS(=O)(=O)c1ccc(Cl)cn1)c1n[nH]c(=O)o1 | 6.11 |
| CCc1ccc(F)c([C@@H](C)[C@H](NS(=O)(=O)c2ccc(Cl)cc2C(N)=O)c2n[nH]c(=O)o2)c1C | 6.74 |
| Cc1c(C(F)(F)F)ccc(F)c1[C@@H](C)[C@H](NS(=O)(=O)c1ccc(Cl)cc1C(N)=O)c1n[nH]c(=O)o1 | 6.26 |
| Cc1ccc(F)c([C@@H](C)[C@H](NS(=O)(=O)c2ccc(Cl)c(C(=O)N3C4CCC3COC4)n2)c2n[nH]c(=O)o2)c1C | 7.15 |
| COc1cc(Cl)ccc1S(=O)(=O)N[C@H](c1n[nH]c(=O)o1)[C@H](C)c1c(F)ccc(C#N)c1C | 6.08 |
| Cc1cccc([C@@H](C)[C@H](NS(=O)(=O)c2ccc(Cl)cc2C(N)=O)c2n[nH]c(=O)o2)c1C | 6.52 |

| Compound | pIC50 |
| --- | --- |
| Cc1ccc(F)c([C@@H](C)[C@H](NS(=O)(=O)c2c(F)cccc2F)c2n[nH]c(=O)o2)c1C | 6.02 |
| Cc1ccc(F)c([C@@H](C)[C@H](NS(=O)(=O)c2c(F)cc(Cl)cc2F)c2n[nH]c(=O)o2)c1C | 6.57 |
| Cc1ccc(F)c([C@@H](C)[C@H](NS(=O)(=O)c2cccc3c2OCCN3C(=O)C2CC2)c2n[nH]c(=O)o2)c1C | 6.54 |
| CC1CCc2cccc(C(C)[C@H](NS(=O)(=O)c3ccc(Br)cn3)c3n[nH]c(=O)o3)c21 (stereo not given in full) | 6.22 |
| C[C@H](c1cccc2c1CCC2)[C@H](NS(=O)(=O)c1ccc(Br)cc1F)c1n[nH]c(=O)o1 | 6.00 |
| Cc1ccc(F)c([C@@H](C)[C@H](NS(=O)(=O)c2ccc(Cl)c3c2C(=O)CCC3)c2n[nH]c(=O)o2)c1C | 6.62 |
| Cc1cccc2cccc([C@@H](C)[C@H](NS(=O)(=O)c3ccc(Cl)c4c3OCCC4(F)F)c3n[nH]c(=O)o3)c12 | 6.55 |
| Cc1ccc(S(=O)(=O)N[C@H](c2n[nH]c(=O)o2)[C@H](C)c2c(F)ccc3ccccc23)c(C(N)=O)c1 | 6.77 |
| CCc1cccc([C@@H](C)[C@H](NS(=O)(=O)c2ccc(Cl)cc2OC)c2n[nH]c(=O)o2)c1C | 6.40 |
| Cc1ccc(F)c([C@@H](C)[C@H](NS(=O)(=O)c2cccc3c2OC(C)(C)CC3=O)c2n[nH]c(=O)o2)c1C | 6.62 |
| CC(=O)OC1(C)CCOc2c(S(=O)(=O)N[C@H](c3n[nH]c(=O)o3)[C@H](C)c3c(F)ccc(Cl)c3C)ccc(Cl)c21 (stereo not given in full) | 6.52 |
| Cc1ccc(F)c([C@@H](C)[C@H](NS(=O)(=O)c2ccc(Cl)nc2C(N)=O)c2n[nH]c(=O)o2)c1C | 6.72 |
| C[C@H](c1cc(F)cc2ccccc12)[C@H](NS(=O)(=O)c1ccc(Cl)cc1C(N)=O)c1n[nH]c(=O)o1 | 6.22 |
| COc1cc(Cl)ccc1S(=O)(=O)N[C@H](c1n[nH]c(=O)o1)[C@H](C)c1cccc2c1CC(C)C2 (stereo not given in full) | 6.15 |
| Cc1ccc(F)c([C@@H](C)[C@H](NS(=O)(=O)c2ccccc2C(N)=O)c2n[nH]c(=O)o2)c1C | 6.59 |
| Cc1ccc(F)c([C@@H](C)[C@H](NS(=O)(=O)c2ccc(Cl)c(C(=O)N3CCC4(CCC4)C3)n2)c2n[nH]c(=O)o2)c1C | 6.74 |
| C[C@H](c1cccc2c1-c1ccccc1C2)[C@H](NS(=O)(=O)c1ccc(Br)cn1)c1n[nH]c(=O)o1 | 6.07 |
| COc1c(S(=O)(=O)N[C@H](c2n[nH]c(=O)o2)[C@H](C)c2c(F)ccc(C)c2C)ccc(Cl)c1C(C)(C)OC(C)=O | 6.37 |
| CC(=O)OC1(C(F)(F)F)CCOc2c1cccc2S(=O)(=O)N[C@H](c1n[nH]c(=O)o1)[C@H](C)c1c(F)ccc(C)c1C (stereo not given in full) | 6.57 |
| Cc1ccc(F)c([C@@H](C)[C@H](NS(=O)(=O)c2ccc(Cl)cc2C(N)=O)c2n[nH]c(=O)o2)c1 | 6.62 |
| COC(=O)c1cc(Cl)ccc1S(=O)(=O)N[C@H](c1n[nH]c(=O)o1)[C@H](C)c1c(F)ccc(C)c1C | 6.39 |
| C[C@H](c1cccc2c1Cc1ccccc1-2)[C@H](NS(=O)(=O)c1ccc(Br)cn1)c1n[nH]c(=O)o1 | 6.10 |

Continued, values first:

| pIC50 | Compound |
| --- | --- |
| 6.82 | Cc1c(Cl)ccc(F)c1[C@@H](C)[C@H](NS(=O)(=O)c1ccc(Br)cc1C(N)=O)c1n[nH]c(=O)o1 |
| 6.96 | CCN1CCOc2c(S(=O)(=O)N[C@H](c3n[nH]c(=O)o3)[C@H](C)c3c(F)ccc(C)c3C)ccc(Cl)c21 |
| 7.22 | Cc1ccc(F)c([C@@H](C)[C@H](NS(=O)(=O)c2ccc(Br)cc2C(N)=O)c2n[nH]c(=O)o2)c1C |
| 6.96 | Cc1ccc(F)c([C@@H](C)[C@H](NS(=O)(=O)c2cc(C(=O)N3CCOCC3)ccc2C(N)=O)c2n[nH]c(=O)o2)c1C |
| 7.22 | Cc1ccc(F)c([C@@H](C)[C@H](NS(=O)(=O)c2ccc(Cl)c(C(=O)N3CCCC3)n2)c2n[nH]c(=O)o2)c1C |
| 7.00 | C[C@H](c1c(F)ccc2ccccc12)[C@H](NS(=O)(=O)c1ccc(Br)cc1C(N)=O)c1n[nH]c(=O)o1 |
| 7.00 | CCc1ccc(F)c([C@@H](C)[C@H](NS(=O)(=O)c2ccc(Br)cc2C(N)=O)c2n[nH]c(=O)o2)c1C |
| 7.22 | Cc1ccc(F)c([C@@H](C)[C@H](NS(=O)(=O)c2ccc(Cl)c(C(=O)N3CCOCC3)n2)c2n[nH]c(=O)o2)c1C |
| 6.96 | C[C@H](c1c(F)ccc2ccccc12)[C@H](NS(=O)(=O)c1ccc(Cl)cc1C(N)=O)c1n[nH]c(=O)o1 |
| 6.85 | Cc1ccc(F)c([C@@H](C)[C@H](NS(=O)(=O)c2cc(C(=O)N(C)C)ccc2C(N)=O)c2n[nH]c(=O)o2)c1C |
| 7.22 | COC(=O)c1nc(S(=O)(=O)N[C@H](c2n[nH]c(=O)o2)[C@H](C)c2c(F)ccc(C)c2C)ccc1Cl |
| 6.82 | Cc1c(Br)ccc(F)c1[C@@H](C)[C@H](NS(=O)(=O)c1ccc(Cl)cc1C(N)=O)c1n[nH]c(=O)o1 |
| 6.89 | Cc1ccc(F)c([C@@H](C)[C@H](NS(=O)(=O)c2ccc(Cl)c3c2OCC(=O)N3CC(F)F)c2n[nH]c(=O)o2)c1C |
| 6.89 | Cc1ccc(F)c([C@@H](C)[C@H](NS(=O)(=O)c2cnc(Cl)cc2C(N)=O)c2n[nH]c(=O)o2)c1C |
| 6.82 | Cc1ccc(F)c([C@@H](C)[C@H](NS(=O)(=O)c2ccc(Cl)c3c2OCCC3=O)c2n[nH]c(=O)o2)c1C |
| 6.80 | COc1cc(Cl)ccc1S(=O)(=O)N[C@H](c1n[nH]c(=O)o1)[C@H](C)c1c(C)c(C)cc(F)c1F |

| pIC50 | Compound |
| --- | --- |
| 6.80 | Cc1c(C2CC2)ccc(F)c1[C@@H](C)[C@H](NS(=O)(=O)c1ccc(Cl)cc1C(N)=O)c1n[nH]c(=O)o1 |
| 7.00 | Cc1ccc(F)c([C@@H](C)[C@H](NS(=O)(=O)c2ccc(C(F)(F)F)cc2C(N)=O)c2n[nH]c(=O)o2)c1C |
| 7.52 | Cc1ccc(F)c([C@@H](C)[C@H](NS(=O)(=O)c2ccc(Cl)c(C(=O)N3CC4CCC(C3)O4)n2)c2n[nH]c(=O)o2)c1C |
| 7.00 | Cc1ccc(F)c([C@@H](C)[C@H](NS(=O)(=O)c2ccc(Cl)c3c2OCC(=O)N3C)c2n[nH]c(=O)o2)c1C |
| 6.85 | Cc1ccc(S(=O)(=O)N[C@H](c2n[nH]c(=O)o2)[C@H](C)c2c(F)ccc(C)c2C)c(C(N)=O)c1 |
| 6.80 | Cc1ccc(F)c([C@@H](C)[C@H](NS(=O)(=O)c2ccc(Cl)c(C#N)n2)c2n[nH]c(=O)o2)c1C |
| 6.89 | Cc1c(Br)ccc(F)c1[C@@H](C)[C@H](NS(=O)(=O)c1ccc(Br)cc1C(N)=O)c1n[nH]c(=O)o1 |
| 7.40 | Cc1ccc(F)c([C@@H](C)[C@H](NS(=O)(=O)c2cc(C(=O)N(C)C)c(Cl)cc2C(N)=O)c2n[nH]c(=O)o2)c1C |
| 6.89 | Cc1ccc(F)c([C@@H](C)[C@H](NS(=O)(=O)c2ccc(C3CC3)cc2C(N)=O)c2n[nH]c(=O)o2)c1C |
| 6.82 | COc1cc(Cl)cnc1S(=O)(=O)N[C@H](c1n[nH]c(=O)o1)[C@H](C)c1c(F)ccc(C)c1C |
| 6.89 | CCc1ccc(S(=O)(=O)N[C@H](c2n[nH]c(=O)o2)[C@H](C)c2c(F)ccc(C)c2C)c(C(N)=O)c1 |
| 6.85 | COc1cc(Cl)ccc1S(=O)(=O)N[C@H](c1n[nH]c(=O)o1)[C@H](C)c1c(F)ccc(C)c1C |
| 6.85 | Cc1ccc(F)c([C@@H](C)[C@H](NS(=O)(=O)c2ccc(Cl)c3c2OCCN3CC(F)F)c2n[nH]c(=O)o2)c1C |
| 7.00 | Cc1ccc(F)c([C@@H](C)[C@H](NS(=O)(=O)c2ccc(Cl)c(C(N)=O)n2)c2n[nH]c(=O)o2)c1C |
| 6.85 | Cc1cc(F)c(F)c([C@@H](C)[C@H](NS(=O)(=O)c2ccc(Cl)cc2C(N)=O)c2n[nH]c(=O)o2)c1C |
